Results published in PubChem BioAssay (NCI).
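Assay format: 96-well plates, 48-hour exposure. At the TGI there is no net growth.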

Assays:
Assay in all cases: inhibition of tumour cell growth, NCI panel, 48 h
[1] = test system: HOP-92 NSCLC
[2] = test system: MALME-3M melanoma
[3] = test system: TK-10 renal
[4] = test system: HS 578T breast
[5] = test system: CAKI-1 renal
[6] = test system: SN12C renal
[7] = test system: COLO 205 colon
[8] = test system: MOLT-4 leukemia
[9] = test system: SNB-19 CNS
[10] = test system: HL-60(TB) leukemia
[11] = test system: PC-3 prostate
[12] = test system: A549 NSCLC
[13] = test system: SF-295 CNS
[14] = test system: HT29 colon
[15] = test system: HCT-15 colon
[16] = test system: SF-539 CNS
[17] = test system: OVCAR-5 ovarian
[18] = test system: UO-31 renal
[19] = test system: RPMI-8226 leukemia
[20] = test system: NCI-H522 lung
[21] = test system: ACHN renal
[22] = test system: NCI-H460 lung
[23] = test system: IGROV1 ovarian
[24] = test system: NCI-H226 lung
[25] = test system: MDA-MB-231 breast
[26] = test system: HCC-2998 colon
[27] = test system: NCI-H23 lung
[28] = test system: MDA-N
[29] = test system: HCT-116 colon
[30] = test system: SK-MEL-2 melanoma
[31] = test system: RXF 393 renal
[32] = test system: 786-0 renal
[33] = test system: K-562 leukemia
[34] = test system: MDA-MB-435
[35] = test system: CCRF-CEM leukemia
[36] = test system: KM12 colon
[37] = test system: U251 CNS
[38] = test system: LOX IMVI melanoma
[39] = test system: A498 renal
[40] = test system: UACC-62 melanoma
[41] = test system: SW-620 colon
[42] = test system: NCI/ADR-RES ovarian
[43] = test system: SK-OV-3 ovarian
[44] = test system: SK-MEL-28 melanoma
[45] = test system: T-47D breast
[46] = test system: OVCAR-8 ovarian
[47] = test system: SNB-75 CNS
[48] = test system: SF-268 CNS
[49] = test system: HOP-62 NSCLC
[50] = test system: DU-145 prostate
[51] = test system: SR leukemia
[52] = test system: UACC-257 melanoma
[53] = test system: SK-MEL-5 melanoma
[54] = test system: OVCAR-4 ovarian
[55] = test system: EKVX NSCLC
[56] = test system: OVCAR-3 ovarian
[57] = test system: MCF7 breast
[58] = test system: BT-549 breast
[59] = test system: M14 melanoma

S=C1C(=Nc2ccccc2)N(C2CCCCC2)C(=NC2CCCCC2)N1c1ccccc1
TGI [1]: > 100 µM
TGI [2]: > 100 µM
TGI [3]: > 100 µM
TGI [4]: > 100 µM
TGI [5]: > 100 µM
TGI [6]: > 100 µM
TGI [7]: > 100 µM
TGI [8]: > 100 µM
TGI [9]: > 100 µM
TGI [10]: > 100 µM
TGI [11]: > 100 µM
TGI [12]: > 100 µM
TGI [13]: > 100 µM
TGI [14]: > 100 µM
TGI [15]: > 100 µM
TGI [16]: > 100 µM
TGI [17]: > 100 µM
TGI [18]: > 100 µM
TGI [19]: > 100 µM
TGI [20]: 71.8 µM
TGI [21]: > 100 µM
TGI [22]: > 100 µM
TGI [23]: > 100 µM
TGI [24]: > 100 µM
TGI [25]: > 100 µM
TGI [26]: > 100 µM
TGI [27]: > 100 µM
TGI [28]: > 100 µM
TGI [29]: > 100 µM
TGI [30]: > 100 µM
TGI [31]: > 100 µM
TGI [32]: > 100 µM
TGI [33]: > 100 µM
TGI [34]: > 100 µM
TGI [35]: > 100 µM
TGI [36]: > 100 µM
TGI [37]: > 100 µM
TGI [38]: > 100 µM
TGI [39]: > 100 µM
TGI [40]: > 100 µM
TGI [41]: > 100 µM
TGI [42]: > 100 µM
TGI [43]: > 100 µM
TGI [44]: > 100 µM
TGI [45]: > 100 µM
TGI [46]: > 100 µM
TGI [47]: > 100 µM
TGI [48]: > 100 µM
TGI [49]: > 100 µM
TGI [50]: > 100 µM
TGI [51]: > 100 µM
TGI [52]: > 100 µM
TGI [53]: > 100 µM
TGI [54]: > 100 µM
TGI [55]: > 100 µM

CCOc1ccccc1N1CSc2nnc(-c3ccccc3)n2C1
TGI [56]: > 100 µM
TGI [1]: > 100 µM
TGI [2]: > 100 µM
TGI [3]: > 100 µM
TGI [57]: > 100 µM
TGI [5]: > 100 µM
TGI [6]: > 100 µM
TGI [7]: > 100 µM
TGI [8]: > 100 µM
TGI [11]: > 100 µM
TGI [12]: > 100 µM
TGI [13]: > 100 µM
TGI [14]: > 100 µM
TGI [15]: > 100 µM
TGI [16]: > 100 µM
TGI [17]: > 100 µM
TGI [18]: > 100 µM
TGI [19]: > 100 µM
TGI [20]: > 100 µM
TGI [21]: > 100 µM
TGI [22]: > 100 µM
TGI [23]: > 100 µM
TGI [24]: > 100 µM
TGI [25]: > 100 µM
TGI [26]: > 100 µM
TGI [27]: > 100 µM
TGI [28]: > 100 µM
TGI [29]: > 100 µM
TGI [30]: > 100 µM
TGI [31]: > 100 µM
TGI [32]: > 100 µM
TGI [33]: > 100 µM
TGI [34]: > 100 µM
TGI [35]: 49.9 µM
TGI [36]: > 100 µM
TGI [37]: > 100 µM
TGI [39]: > 100 µM
TGI [40]: > 100 µM
TGI [41]: > 100 µM
TGI [58]: > 100 µM
TGI [42]: > 100 µM
TGI [43]: > 100 µM
TGI [44]: > 100 µM
TGI [45]: > 100 µM
TGI [46]: > 100 µM
TGI [59]: > 100 µM
TGI [48]: > 100 µM
TGI [49]: > 100 µM
TGI [50]: > 100 µM
TGI [51]: > 100 µM
TGI [52]: > 100 µM
TGI [53]: > 100 µM
TGI [54]: > 100 µM

O=C1Nc2ccc(Cl)cc2C(=O)N2CCC[C@@H]12
TGI [56]: > 100 µM
TGI [1]: > 100 µM
TGI [2]: > 100 µM
TGI [3]: > 100 µM
TGI [57]: > 100 µM
TGI [5]: > 100 µM
TGI [6]: > 100 µM
TGI [7]: > 100 µM
TGI [8]: > 100 µM
TGI [9]: > 100 µM
TGI [11]: > 100 µM
TGI [12]: > 100 µM
TGI [13]: > 100 µM
TGI [14]: > 100 µM
TGI [15]: > 100 µM
TGI [17]: > 100 µM
TGI [18]: > 100 µM
TGI [19]: > 100 µM
TGI [20]: > 100 µM
TGI [21]: > 100 µM
TGI [22]: > 100 µM
TGI [23]: > 100 µM
TGI [24]: > 100 µM
TGI [25]: > 100 µM
TGI [26]: > 100 µM
TGI [27]: > 100 µM
TGI [28]: > 100 µM
TGI [29]: > 100 µM
TGI [30]: > 100 µM
TGI [31]: > 100 µM
TGI [32]: > 100 µM
TGI [33]: > 100 µM
TGI [34]: > 100 µM
TGI [36]: > 100 µM
TGI [37]: > 100 µM
TGI [38]: > 100 µM
TGI [39]: > 100 µM
TGI [40]: > 100 µM
TGI [41]: > 100 µM
TGI [58]: > 100 µM
TGI [42]: > 100 µM
TGI [43]: > 100 µM
TGI [44]: > 100 µM
TGI [45]: > 100 µM
TGI [46]: > 100 µM
TGI [59]: > 100 µM
TGI [47]: > 100 µM
TGI [48]: > 100 µM
TGI [49]: > 100 µM
TGI [50]: > 100 µM
TGI [51]: > 100 µM
TGI [52]: > 100 µM
TGI [53]: > 100 µM
TGI [54]: > 100 µM
TGI [55]: > 100 µM
